Measurements: patent US20260007684A1, “AMIDE DERIVATIVES FOR INHIBITING NLRP3 AND USES THEREOF” (Ventus Therapeutics U.S., Inc., priority 2023, published 2026)
pIC50: −log10 of the molar value.

target: human NLRP3 (Homo sapiens (Human), UniProt Q96P20); assay: Scintillation Proximity (SPA) NLRP3 Assay: displacement of 3H-MCC950; assay type: binding; conditions: SPA IC50, displacement of 3H-MCC950
Sequence (Q96P20 whole entry): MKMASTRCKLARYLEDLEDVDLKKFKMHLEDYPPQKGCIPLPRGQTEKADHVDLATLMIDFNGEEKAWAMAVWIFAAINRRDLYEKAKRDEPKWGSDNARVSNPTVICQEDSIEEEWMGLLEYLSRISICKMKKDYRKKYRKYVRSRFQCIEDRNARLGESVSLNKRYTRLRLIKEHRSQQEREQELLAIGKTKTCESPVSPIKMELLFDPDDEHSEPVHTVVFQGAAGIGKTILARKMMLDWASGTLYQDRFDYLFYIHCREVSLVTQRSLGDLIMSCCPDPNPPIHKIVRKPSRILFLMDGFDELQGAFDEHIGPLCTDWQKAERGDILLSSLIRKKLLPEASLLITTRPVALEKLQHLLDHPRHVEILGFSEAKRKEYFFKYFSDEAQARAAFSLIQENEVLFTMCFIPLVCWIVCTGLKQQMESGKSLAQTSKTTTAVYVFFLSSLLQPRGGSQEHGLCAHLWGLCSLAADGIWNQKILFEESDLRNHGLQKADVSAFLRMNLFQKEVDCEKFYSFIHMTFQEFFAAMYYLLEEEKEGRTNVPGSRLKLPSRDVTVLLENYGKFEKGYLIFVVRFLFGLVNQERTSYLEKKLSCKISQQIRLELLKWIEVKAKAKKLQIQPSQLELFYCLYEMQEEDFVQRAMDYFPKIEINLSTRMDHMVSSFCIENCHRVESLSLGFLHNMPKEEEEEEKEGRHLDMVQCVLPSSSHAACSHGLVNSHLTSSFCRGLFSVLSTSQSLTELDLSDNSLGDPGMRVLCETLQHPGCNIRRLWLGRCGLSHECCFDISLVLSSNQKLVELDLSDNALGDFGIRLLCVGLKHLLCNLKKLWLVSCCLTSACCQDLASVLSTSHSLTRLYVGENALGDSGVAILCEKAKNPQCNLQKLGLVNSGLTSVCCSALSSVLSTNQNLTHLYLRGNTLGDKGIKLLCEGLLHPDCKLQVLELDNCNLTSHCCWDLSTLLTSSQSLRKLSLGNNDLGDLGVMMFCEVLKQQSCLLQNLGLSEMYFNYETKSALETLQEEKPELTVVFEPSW

Compound	pIC50
C[C@H]1C[C@@H]2CC[C@H]([C@@H](NC(=O)C3(c4ccc(C(F)(F)F)cc4)CC3)C1)N2c1nnn[nH]1 [104B*, N-((1R,2S,4R,6S)-4-methyl-9-(1H-tetrazol-5-yl)-9-azabicyclo[4.2.1]nonan-2-yl)-1-(4-(trifluoromethyl)phenyl)cyclopropane-1-carboxamide]	4.30 to 5.00
O=C(NC1CCC[C@H]2CC[C@@H]1N2c1nnn[nH]1)C1(c2ccc(C3CC3)cc2O)CC1 (single isomer, unassigned) [93D*]	5.00 to 6.00

same assay, conditions: displacement of 3H-MCC950; read-out: SPA IC50

Compound	pIC50
C[C@@H]1CCN(c2nnn[nH]2)C[C@@H](NC(=O)C2(c3cc(F)c(C(F)(F)F)cc3F)CC2)C1 (single isomer, unassigned) [7B*, 1-(2,5-difluoro-4-(trifluoromethyl)phenyl)-N-(5-methyl-1-(1H-tetrazol-5-yl)azepan-3-yl)cyclopropane-1-carboxamide]	4.30 to 5.00
C[C@H]1CCN(c2nnn[nH]2)C[C@@H](NC(=O)C2(c3ccc(C(F)F)cc3O)CC2)C1 (single isomer, unassigned) [30D*, 1-(4-(difluoromethyl)-2-hydroxyphenyl)-N-(5-methyl-1-(1H-tetrazol-5-yl)azepan-3-yl)cyclopropane-1-carboxamide]	5.00 to 6.00
O=C(N[C@H]1CC[C@@H]2CC[C@H]1N2c1nnn[nH]1)C1(c2ccc(Cl)c(F)c2O)CC1 [76B*, N-((1R,2S,5R)-8-(1H-tetrazol-5-yl)-8-azabicyclo[3.2.1]octan-2-yl)-1-(4-chloro-3-fluoro-2-hydroxyphenyl)cyclopropane-1-carboxamide]	4.30 to 5.00
C[C@@H]1CCN(c2nnn[nH]2)C[C@@H](NC(=O)C2(c3ccc(OC(F)(F)F)c(F)c3O)CC2)C1 (single isomer, unassigned) [28B*, 1-(3-fluoro-2-hydroxy-4-(trifluoromethoxy)phenyl)-N-(5-methyl-1-(1H-tetrazol-5-yl)azepan-3-yl)cyclopropane-1-carboxamide]	5.00 to 6.00
C[C@H]1CCN(c2nnn[nH]2)C[C@@H](NC(=O)C2(c3ccc(C(F)F)cc3)CC2)C1 (single isomer, unassigned) [5D*, 1-(4-(difluoromethyl)phenyl)-N-(5-methyl-1-(1H-tetrazol-5-yl)azepan-3-yl)cyclopropane-1-carboxamide]	4.30 to 5.00
C[C@@H]1CC[C@H](NC(=O)C2(c3ccc(C(F)(F)F)cc3O)CC2)CN(c2nnn[nH]2)C1 [89D*, 1-(2-hydroxy-4-(trifluoromethyl)phenyl)-N-((3S,6R)-6-methyl-1-(1H-tetrazol-5-yl)azepan-3-yl)cyclopropane-1-carboxamide]	5.00 to 6.00
C[C@@H]1CCN(c2nnn[nH]2)C[C@@H](NC(=O)C2(c3ccc(C4CC4)c(F)c3O)CC2)C1 (single isomer, unassigned) [32B*, 1-(4-cyclopropyl-3-fluoro-2-hydroxyphenyl)-N-(5-methyl-1-(1H-tetrazol-5-yl)azepan-3-yl)cyclopropane-1-carboxamide]	5.00 to 6.00
C[C@@H]1CC[C@@H](NC(=O)C2(c3ccc(Cl)cc3)CC2)CN1c1nnn[nH]1 [Compound 41C, 1-(4-chlorophenyl)-N-[(3R,6R)-6-methyl-1-(1H-tetrazol-5-yl)-3-piperidyl]cyclopropanecarboxamide]	< 4.00
C[C@@H]1CCN(c2nnn[nH]2)C[C@@H](NC(=O)C2(c3ccc(C(F)(F)F)c(OC(F)F)c3)CC2)C1 (single isomer, unassigned) [54B*]	4.30 to 5.00
C[C@H]1CCN(c2nnn[nH]2)C[C@@H](NC(=O)C2(c3ccc(OC(F)(F)F)cc3)CC2)C1 (single isomer, unassigned) [57D*]	4.30 to 5.00
C[C@H]1C[C@@H](NC(=O)C2(c3ccc(C(F)(F)F)cc3F)CC2)[C@@H]2CC[C@H]1N2c1nnn[nH]1 [84C*, 1-(2-fluoro-4-(trifluoromethyl)phenyl)-N-((1S,2R,4S,5R)-4-methy1-8-(1H-tetrazol-5-yl)-8-azabicyclo[3.2.1]octan-2-yl)cyclopropane-1-carboxamide]	< 4.00
O=C(N[C@H]1CN(c2nnn[nH]2)CC[C@H]1F)C1(c2ccc(Cl)cc2)CC1 [Compound 50A, 1-(4-chlorophenyl)-N-[(3S,4R)-4-fluoro-1-(1H-tetrazol-5-yl)-3-piperidyl]cyclopropanecarboxamide]	4.30 to 5.00
C[C@H]1CCN(c2nnn[nH]2)C[C@H](NC(=O)C2(c3ccc(C(F)(F)F)c(OC(F)F)c3)CC2)C1 (single isomer, unassigned) [54C*]	< 4.00
C[C@H]1CCN(c2nnn[nH]2)C[C@H](NC(=O)C2(c3ccc(Cl)cc3)CC2)C1 (single isomer, unassigned) [12C*, 1-(4-chlorophenyl)-N-(5-methyl-1-(1H-tetrazol-5-yl)azepan-3-yl)cyclopropane-1-carboxamide]	< 4.00
C[C@H]1CCN(c2nnn[nH]2)C[C@@H](NC(=O)C2(c3cc(F)c(C(F)(F)F)cc3F)CC2)C1 (single isomer, unassigned) [7D*, 1-(2,5-difluoro-4-(trifluoromethyl)phenyl)-N-(5-methyl-1-(1H-tetrazol-5-yl)azepan-3-yl)cyclopropane-1-carboxamide]	5.00 to 6.00
C[C@@H]1CCN(c2nnn[nH]2)C[C@@H](NC(=O)C2(c3ccc(OC(F)F)c(F)c3)CC2)C1 (single isomer, unassigned) [73B*]	5.00 to 6.00
C[C@H]1CCN(c2nnn[nH]2)C[C@H](NC(=O)C2(c3ccc(OC(F)F)c(F)c3)CC2)C1 (single isomer, unassigned) [73C*]	4.30 to 5.00
C[C@@H]1CC[C@H](NC(=O)C2(c3ccc(Cl)cc3)CC2)CN(c2nnn[nH]2)C1 (single isomer, unassigned) [36D*, 1-(4-chlorophenyl)-N-(6-methyl-1-(1H-tetrazol-5-yl)azepan-3-yl)cyclopropane-1-carboxamide]	< 4.00
C[C@@H]1CCN(c2nnn[nH]2)C[C@@H](NC(=O)C2(c3ccc(Cl)c(F)c3)CC2)C1 (single isomer, unassigned) [65B*]	4.30 to 5.00
C[C@H]1CCN(c2nnn[nH]2)C[C@@H](NC(=O)C2(c3ccc(Cl)cc3O)CC2)C1 (single isomer, unassigned) [60D*]	> 6.00
C[C@H]1C[C@H](NC(=O)C2(c3ccc(C(F)F)cc3)CC2)[C@@H]2CC[C@H]1N2c1nnn[nH]1 [86D*, 1-(4-(difluoromethyl)phenyl)-N-((1S,2S,4S,5R)-4-methyl-8-(1H-tetrazol-5-yl)-8-azabicyclo[3.2.1]octan-2-yl)cyclopropane-1-carboxamide]	< 4.00
C[C@H]1CCN(c2nnn[nH]2)C[C@H](NC(=O)C2(c3ccc(C(F)(F)F)c(F)c3O)CC2)C1 (single isomer, unassigned) [31C*, 1-(3-fluoro-2-hydroxy-4-(trifluoromethyl)phenyl)-N-(5-methyl-1-(1H-tetrazol-5-yl)azepan-3-yl)cyclopropane-1-carboxamide]	4.30 to 5.00
CC(C)c1ccc(C2(C(=O)N[C@H]3C[C@@H](C)CCN(c4nnn[nH]4)C3)CC2)c(O)c1 (single isomer, unassigned) [27D*, 1-(2-hydroxy-4-isopropylphenyl)-N-(5-methyl-1-(1H-tetrazol-5-yl)azepan-3-yl)cyclopropane-1-carboxamide]	5.00 to 6.00
C[C@H]1CCN(c2nnn[nH]2)C[C@H](NC(=O)C2(c3ccc(Cl)cc3Cl)CC2)C1 (single isomer, unassigned) [55C*]	4.00 to 4.30
